Source: patent publication US10220025B1, “Self-emulsifying formulation of CARP-1 functional mimetics” (Florida A&M University, priority 2016, dated 2019)

Assays:
[1] = tested on: HeLa cervical cancer cells; assay: MTT viability assay, HeLa; type: cell-based; details: 20 μM; 24 h; FIG. 3A
Description: (§1) The current inventors' previous studies have indicated cancer cell growth inhibitory properties of CFMs in particular CFM-4 and CFM-5 [Puliyappadamba et al.]. […] J. Biomed. Nanotechnol. 2015; 11:1608-1627]. […] J. Biomed. Nanotechnol. 2015; 11:1608-1627]. On the basis of these findings, it was speculated that solubility and/or potency of the CFM-4 scaffold could be improved for its utility as a novel anti-TNBC molecule. To address this possibility, twelve (12) additional analogs of CFM-4 (Table 2) were synthesized using medicinal chemistry based structure activity relationship (SAR) studies. Each of the analog was suspended in DMSO, and their potency was evaluated in cell culture studies utilizing HeLa cervical cancer, MDA-MB-468 TNBC, and H2461 malignant pleural mesothelioma (MPM) cells by MTT based assays. […] Moreover, a 10 μM dose of CFM-4 inhibited MDA-MB-231 and MDA-MB-468 viabilities by ˜30% and 45%, respectively.

[2] = tested on: H2461 malignant pleural mesothelioma (MPM) cells; assay: MTT viability assay, MPM cells; type: cell-based, human; details: 20 μM; 24 h; FIG. 3A
Description: as §1

HUVECs = assay: in vitro tubule formation (angiogenesis) assay; type: cell-based, human; details: 12 hours; FIG. 11A
Experimental: The growth of tubules was monitored over a period of 12 hours. The cells growth in the scratch assay was recorded by photography. Representative photomicrographs of control and treated cells are presented.
It was next investigated whether CFM-4.16 inhibited TNBC cell migration and growth as colonies in soft agar and 3-dimensional cultures in vitro. In addition, an in vitro tubule formation assay was conducted to determine anti-angiogenic properties of CFM-4.16. […] Moreover, treatments with CFM-4 or CFM-4.16 prevented the parental as well as drug (ADR- or cisplatin-) resistant TNBC sublines and the parental and Herceptin-resistant, Her-2-positive SKBR-3 cells from growing in the areas of wound caused by a scratch (FIGS. 11B, 11C, 12A, 12B, 13A, and 13B).

O=C1N(Cc2ccccc2Cl)c2ccccc2C12NN=C(c1cccc(Cl)c1)S2 (stereo not drawn) [CFM-4.16]
inhibition of viability compared with CFM-4 [1]: greater inhibition of viability
loss of viability compared with CFM-4 [2]: greater loss of viability
tubule formation by HUVECs compared with untreated control (HUVECs): rather robust disruption in tubule integrity
